Earlier results on one compound are cited in patent EP3290033A2, “PHARMACEUTICAL PACKAGE” (Samyang Biopharmaceuticals Corporation, priority 2015, dated 2016).

As usually defined, the half-life is the time needed for the level to fall by half in the phase considered.

For data set [1] the following is noted: higher than that of other first-generation 5-HT3 receptor antagonists.
The conditions of data set [2]: in vivo.

Consider `O=C1c2cccc3c2[C@H](CCC3)CN1[C@@H]1CN2CCC1CC2` [palonosetron, (3aS)-2-[(3S)-1-azabicyclo[2.2.2]oct-3-yl]-2,3,3a,4,5,6-hexahydro-1H-benz[de]isoquinolin-1-one], for which the “inhibitory effect on delayed vomiting” value in data set [1] is 10 times. In addition, in data set [2], the half-life is not below 40 h.
